Results published in patent US20120316203A1, “Compositions and Methods for Inhibition of Cancers” (THE OHIO STATE UNIVERSITY RESEARCH FOUNDATION, priority 2009, published 2012).

Experiments:
A2780 cells [1] = test: Cell viability by MTT assay, A2780 cells; assay type: cell-based, human; settings: 24 hours, dose series
Method: (§1) Cell viability was determined by a colorimetric assay using MTT. In the mitochondria of living cells, yellow MTT undergoes a reductive conversion to formazan, producing a purple color. Cells, grown to […] confluence in 75-mm flasks, were trypsinized, counted, seeded in 96-well plates with an average population of 7,000 cells per well, incubated overnight, and then treated with curcumin, H-4073, or HO-3867 for 24 hours. All experiments were done using eight replicates and, repeated at least thrice.

hOSE cells = test: Cell viability by MTT assay, noncancerous hOSE control cells; assay type: cell-based, human
Method: as §1

[2] = test system: A2780 human ovarian tumor xenograft; test: Ovarian cancer tumor xenografts in mice, tumor growth; assay type: in vivo, BALB/c nude mice; settings: 25, 50, and 100 ppm in feed, 5 weeks; dose-dependent, 50 and 100 ppm more effective
Method: (§2) Cultured A2780 cancer cells (2×10^6 cells in […] of PBS) were s.c. injected into the back of 6-week-old BALB/c nude mice from the National Cancer Institute. Five to 7 days later, when the tumors reached 3 to 5 mm in diameter, the mice were divided (n=9/group) in a manner to equalize the mean tumor diameter among the groups. The control group was given a normal diet (no treatment), whereas the experimental groups were treated using the DAP compounds mixed with the animal feed (Harlan Teklad) at three different levels (25, 50, and 100 ppm). The doses were chosen based on an initial dose-response study optimized to produce an observable effect on tumor growth. The size of the tumor was measured twice per week using a digital Vernier caliper. The tumor volume was determined from the orthogonal dimensions (d1, d2, d3) using the formula (d1×d2×d3)×π/6. Thirty five days after the beginning of HO-3867 treatment, the mice were sacrificed and the tumors were resected. The tumor tissues were then subjected to immunoblot analysis.

[3] = test system: A2780 xenograft tumor tissue; test: Immunoblot analysis of excised xenograft tumor tissue (JAK/STAT3, targets, apoptosis); assay type: in vivo, BALB/c nude mice
Method: Cells in RPMI 1640 were treated with DMSO (control) or HO-3867 (10 μmol/L) for 24 hours. Equal volumes of DMSO (0.1% v/v) were present in each treatment. Following treatment, the cell lysates were prepared in non-denaturing lysis buffer containing 10 mmol/L Tris-HCl (pH 7.4), 150 mmol/L NaCl, 1% Triton X-100, 1 mmol/L EDTA, 1 mmol/L EGTA, 0.3 mmol/L phenylmethyl-sulfonyl fluoride, 0.2 mmol/L sodium orthovanadate, 0.5% NP40, 1 μg/mL aprotinin, and 1 μg/mL leupetin. The lysates were centrifuged at 10,000×g for 20 minutes at 4° C. and the supernatant was separated. The protein concentration in the lysates was determined using a Pierce detergent-compatible protein assay kit. For Western blotting, 25 to 50 μg of protein lysate per sample were denatured in 2×SDS-PAGE sample buffer and subjected to SDS-PAGE on a 10% tris-glycine gel. The separated proteins were transferred to a polyvinylidene fluoride membrane and were blocked with 5% nonfat milk powder (w/v) in TBST (10 mmol/L Tris, 10 mmol/L NaCl, 0.1% Tween 20) for 1 hour at room temperature or overnight at 4° C. The membranes were then incubated with the primary antibodies. The bound antibodies were detected with horseradish peroxidase-labeled sheep anti-mouse IgG or horseradish peroxidase-labeled donkey anti-rabbit IgG using an enhanced chemiluminescence detection system (ECL Advanced kit). Protein expressions were determined using the Image Gauge v. 3.45 software.
as §2

[4] = test system: A2780, A2780R, MCF-7, HCT-116, PC-3, HepG2, A549, and SCC4 human cancer cell lines; test: Cytotoxicity of DAPs to cancer cells (MTT); assay type: cell-based; settings: 10 μM, 24 h
Method: (§3) Cell viability was determined by a colorimetric assay using MTT. In the mitochondria of living cells, yellow MTT undergoes a reductive conversion to formazan, giving a purple color. Cells, grown to […] confluence in 75-mm flasks, were trypsinized, counted, seeded in 96-well plates with an average population of 7000 cells/well, incubated overnight, and then treated with the DAPs (H-4073, HO-3867, H4318, or HO-4200; […]) for 24 h. All experiments were done using eight replicates and repeated at least three times. Cell viability was expressed as the percentage of MIT viability of untreated cells.

[5] = test system: hOSE cells, HSMC, and HAEC; test: Cytotoxicity of DAPs to noncancerous cells (MTT); assay type: cell-based, human
Method: as §3

A2780 cells [6] = test: Intracellular ROS by DCF fluorescence, A2780; assay type: cell-based, human; settings: 5 or 10 μM, 12 h
Method: The ROS levels in cells treated with DAPs were determined using H2DCF-DA, a membrane-permeative fluorogenic probe. The acetate and acetoxymethyl ester groups of this probe are enzymatically cleaved inside living cells. The probe can then be oxidized by intracellular oxidants (ROS) to give a product, DCF, which emits a strong, green fluorescence (λex=504 nm; λem=529 nm). The fluorescence intensity is proportional to the level of cellular oxidants. Cells, grown to 80% confluence on 6-mm glass coverslips, were treated with […] H-4073, HO-3867, H-4318, or HO-4200 for 12 h, followed by incubation with H2DCF-DA. The cells were further incubated in the dark for 20 min and washed with protein-free medium, and then fluorescence images were immediately captured with a Nikon Eclipse TE2000-U camera system using excitation/emission at 495/520 nm. The captured images were then analyzed using MetaMorph image analysis software.

A2780 and SKOV3 cells = test: Cell-invasion (Boyden chamber) assay; assay type: cell-based, human; settings: 10 μM
Method: Cell-migration assay was performed by wound-healing method. Cells were plated at equal density and grown to 90% confluence. Wounds were created using a sterile pipette tip. Cells were then rinsed with medium and replaced with the fresh medium and incubated with HO-3867 (10 μM). Areas of wound were marked and photographed at various time-points with a phase-contrast microscope. Cell-invasive assay was measured by an in vitro Boyden chamber assay. Briefly, 1×10^5 cells in 0.5 ml of serum-free RPMI 1640 medium were added to the wells of 8-μm-diameter pore membrane Boyden chambers, either coated with (BD Biosciences, Franklin Lake, N.J.) or without (Corning, Corning, N.Y.) Matrigel. Cells were allowed to invade for 24 hours. Cells that had not penetrated the filters were removed by scrubbing with cotton swabs. Chambers were fixed in 100% methanol for 2 min, stained in 0.5% crystal violet for 2 min, rinsed in PBS and examined using a bright-field microscope. Values for invasion were obtained by counting five fields per membrane and represented as the average of three independent experiments performed over multiple days.

CC1(C)C=C(CN2C/C(=C\c3ccc(F)cc3)C(=O)/C(=C/c3ccc(F)cc3)C2)C(C)(C)N1O [HO-3867, 1-[(1-oxyl-2,2,5,5-tetramethyl-2,5-dihydro-1H-pyrrol-3-yl)methyl]-(3E,5E)-3,5-bis(4-fluorobenzylidene)piperidin-4-one]
cytotoxicity, viability of A2780 cells (A2780 cells [1]): significantly higher toxicity when compared with curcumin | cytotoxicity to hOSE cells (hOSE cells; 20 μmol/L): significant cytotoxicity | toxicity to noncancerous hOSE cells compared with H-4073 (hOSE cells; equivalent doses): significantly less toxic | cytotoxicity to hOSE cells (hOSE cells; up to 10 μmol/L): no significant cytotoxicity | tumor volume [2]: significant reduction | cleaved caspase-3 and PARP in tumors ([3]; mouse, in vivo): significant induction | cyclin D1, VEGF, Bcl-2, and Survivin levels in tumors ([3]; mouse, in vivo): clear decrease | pJAK levels in tumor tissues ([3]; mouse, in vivo): did not observe any significant change | total JAK levels in tumor tissues ([3]; mouse, in vivo): clear downregulation | pSTAT3 Tyr705 and Ser727 levels in tumor tissue ([3]; without affecting total STAT3): decreased expressions | cell viability of human cancer cell lines [4]: substantial loss of cell viability | cell viability of noncancerous (healthy) human cell lines ([5]; 10 NM, 24-h incubation): significantly less toxic | viability of hOSE cells ([5]; same dose for both compounds): very little effect | intracellular ROS generation (DCF fluorescence) in A2780 cells (A2780 cells [6]): comparable in inducing ROS generation | cell invasion (A2780 and SKOV3 cells; 24 hours, versus untreated cells): significant inhibition | VEGF-induced invasion (A2780 and SKOV3 cells; 24-h incubation, versus VEGF group): significantly inhibited
